From ChEMBL document CHEMBL5728092, “Benzimidazole derivatives as modulators of ROR-gamma” (2020)
pKi: −log10 of the molar value.

Each compound was assayed against T1, Nuclear receptor ROR-gamma (Homo sapiens, UniProt P51449) (assay: Binding Assay : Compounds described herein were tested for ability to bind to RORγ in a cell-free competition assay with commercially available radio-ligand (RL), 25-hydroxy [26,27-3H]-cholesterol (PerkinElmer, Cat. #NET674250UC), for a ligand binding site on a recombinant RORγ Ligand Binding Domain (LBD) protein expressed as a 6×His-Glutathione-S-Transferase (GST) fusion. The assay was performed in 96-well SPA plates (PerkinElmer, Cat. #1450-401) in 50 mM HEPES buffer, pH 7.4, containing 150 mM NaCl, 5 mM MgCl2, 10% (v/v) glycerol, 2 mM CHAPS, 0.5 mM β-octylglucopyranoside and 5 mM DTT. Tested compounds were dissolved in DMSO, and semi-log (3.162×) serial dilutions of the compounds were prepared in the same solvent. Two μL of the DMSO solutions were mixed with 28 μL of 8.6 nM 25-hydroxy [26,27-3H]-cholesterol and 50 μL of 24 nM RORγ LBD. The plate was shaken at 700 rpm for 20 min and incubated for 10 min at rt, after which 40 μL of poly-Lys YSi SPA beads (PerkinElmer, Cat. #RPNQ0010) were added to achieve […] of the beads per well. The plate was incubated on an orbital shaker for 20 min and then for 10 min without agitation at rt. SPA signal for tritium beta radiation was registered on PerkinElmer Microbeta plate reader. Percent inhibition values were calculated based on the high signal obtained with DMSO control and the low signal observed with 10 μM standard RORγ inverse agonist T0901317 (SigmaAldrich, Cat. #T2320). The percent inhibition vs. concentration data were fit into a four-parameter model, and IC50 values were calculated from the fit as the concentrations corresponding to the inflection points on the dose-response curves.).
T1 sequence (P51449 whole entry): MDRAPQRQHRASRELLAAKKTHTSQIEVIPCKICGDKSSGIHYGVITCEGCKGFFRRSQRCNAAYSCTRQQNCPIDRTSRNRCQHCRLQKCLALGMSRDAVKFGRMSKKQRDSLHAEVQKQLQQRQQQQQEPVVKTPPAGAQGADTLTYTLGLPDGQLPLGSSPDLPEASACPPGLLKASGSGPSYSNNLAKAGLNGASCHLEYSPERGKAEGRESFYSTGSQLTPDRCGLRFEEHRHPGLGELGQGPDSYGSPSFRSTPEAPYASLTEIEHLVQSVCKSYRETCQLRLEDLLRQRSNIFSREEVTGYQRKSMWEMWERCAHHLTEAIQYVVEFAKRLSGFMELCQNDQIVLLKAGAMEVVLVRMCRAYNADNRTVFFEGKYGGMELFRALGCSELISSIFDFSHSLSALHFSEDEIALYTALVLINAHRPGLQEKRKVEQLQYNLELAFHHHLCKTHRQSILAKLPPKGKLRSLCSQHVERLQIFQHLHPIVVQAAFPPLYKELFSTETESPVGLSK

Compound | pKi
CCS(=O)(=O)c1ccc([C@H](CO)NC(=O)c2ccc3c(c2)nc(C2CC2)n3Cc2cccc3c2OC(F)(F)O3)cc1 | > 7.00
CCS(=O)(=O)c1ccc(CNC(=O)c2ccc3c(c2)nc(C(F)(F)F)n3Cc2cccc3c2OC(F)(F)O3)[n+]([O-])c1 | > 7.00
CCS(=O)(=O)c1ccc([C@H](CO)NC(=O)c2ccc3c(c2)nc(C2(F)CCC2)n3Cc2cccc3c2OC(F)(F)O3)cc1 | > 7.00
